{
  "source": "ChEMBL document CHEMBL1128761",
  "about": "“Benzothiazolylthio carbapenems: potent anti-MRSA agents” (Bioorg Med Chem Lett, 1995)",
  "data": [
    {"tested_on": "Enterococcus", "assay": "Inhibitory activity against enterococcus evaluated by computational method", "type": "functional", "conditions": "not given", "units": {"MIC": "µg/mL"}, "values": [
      {"compound": "C[C@@H](O)[C@H]1C(=O)N2C(C(=O)[O-])=C(Sc3nc4ccc(N)cc4s3)[C@H](C)[C@H]12.[Na+]", "MIC": 5.9},
      {"compound": "COC(=O)c1cc2sc(SC3=C(C(=O)[O-])N4C(=O)[C@H]([C@@H](C)O)[C@H]4[C@H]3C)nc2o1.[Na+]", "MIC": 4},
      {"compound": "C[C@@H](O)[C@H]1C(=O)N2C(C(=O)[O-])=C(Sc3ccc4ccccc4n3)[C@H](C)[C@H]12.[Na+]", "MIC": 4.9},
      {"compound": "C[C@@H](O)[C@H]1C(=O)N2C(C(=O)[O-])=C(Sc3nc4ccccc4o3)[C@H](C)[C@H]12.[Na+]", "MIC": 8.9},
      {"compound": "C[C@@H](O)[C@H]1C(=O)N2C(C(=O)[O-])=C(Sc3nc4cc(C(F)(F)F)ccc4s3)[C@H](C)[C@H]12.[Na+]", "MIC": 2.9},
      {"compound": "C[C@@H](O)[C@H]1C(=O)N2C(C(=O)[O-])=C(Sc3nc4ccc(Cl)cc4s3)[C@H](C)[C@H]12.[Na+]", "MIC": 4}
    ]},
    {"tested_on": "Bacteria", "assay": "The gram-negative activity is derived from eleven strains selected from seven enteric genera", "type": "functional", "conditions": "Bacteria; read-out: MIC", "units": {"MIC": "µg/mL"}, "values": [
      {"compound": "C[C@@H](O)[C@H]1C(=O)N2C(C(=O)[O-])=C(Sc3nc4ccc(N)cc4s3)[C@H](C)[C@H]12.[Na+]", "MIC": 18.3},
      {"compound": "COC(=O)c1cc2sc(SC3=C(C(=O)[O-])N4C(=O)[C@H]([C@@H](C)O)[C@H]4[C@H]3C)nc2o1.[Na+]", "MIC": 12.4},
      {"compound": "C[C@@H](O)[C@H]1C(=O)N2C(C(=O)[O-])=C(Sc3ccc4ccccc4n3)[C@H](C)[C@H]12.[Na+]", "MIC": 10.1},
      {"compound": "C[C@@H](O)[C@H]1C(=O)N2C(C(=O)[O-])=C(Sc3nc4ccccc4o3)[C@H](C)[C@H]12.[Na+]", "MIC": 27.8},
      {"compound": "C[C@@H](O)[C@H]1C(=O)N2C(C(=O)[O-])=C(Sc3nc4cc(C(F)(F)F)ccc4s3)[C@H](C)[C@H]12.[Na+]", "MIC": 9.9},
      {"compound": "C[C@@H](O)[C@H]1C(=O)N2C(C(=O)[O-])=C(Sc3nc4ccc(Cl)cc4s3)[C@H](C)[C@H]12.[Na+]", "MIC": 17.6}
    ]},
    {"target": "T1, MecA (Staphylococcus aureus, UniProt Q7DHH4)", "T1 sequence (Q7DHH4 whole entry)": "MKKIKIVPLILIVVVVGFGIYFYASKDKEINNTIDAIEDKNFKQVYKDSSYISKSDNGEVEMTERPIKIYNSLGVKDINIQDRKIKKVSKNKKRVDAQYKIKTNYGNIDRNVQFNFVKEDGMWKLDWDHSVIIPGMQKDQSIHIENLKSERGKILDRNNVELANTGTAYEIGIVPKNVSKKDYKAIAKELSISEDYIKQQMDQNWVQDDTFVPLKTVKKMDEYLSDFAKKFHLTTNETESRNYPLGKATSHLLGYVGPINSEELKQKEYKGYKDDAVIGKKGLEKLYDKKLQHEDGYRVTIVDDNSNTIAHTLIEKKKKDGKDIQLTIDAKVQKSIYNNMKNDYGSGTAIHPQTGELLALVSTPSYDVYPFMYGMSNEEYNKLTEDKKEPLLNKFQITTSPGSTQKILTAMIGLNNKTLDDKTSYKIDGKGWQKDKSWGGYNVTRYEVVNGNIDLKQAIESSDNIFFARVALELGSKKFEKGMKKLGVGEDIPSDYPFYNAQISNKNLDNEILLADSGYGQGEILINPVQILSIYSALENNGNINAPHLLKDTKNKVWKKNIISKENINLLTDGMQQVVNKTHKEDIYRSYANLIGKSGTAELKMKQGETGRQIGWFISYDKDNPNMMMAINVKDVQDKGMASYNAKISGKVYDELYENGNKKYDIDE", "assay": "Binding affinity towards Penicillin-binding protein 2a from homogeneous MRSA COL strain using [3H]-radioligand", "conditions": "not given", "units": {"IC50": "µM"}, "values": [
      {"compound": "C[C@@H](O)[C@H]1C(=O)N2C(C(=O)O)=C(SCCN=CN)C[C@H]12", "note": "[IMIPENEM ANHYDROUS]", "IC50": 428},
      {"compound": "C[C@@H](O)[C@H]1C(=O)N2C(C(=O)[O-])=C(Sc3nc4ccc(N)cc4s3)[C@H](C)[C@H]12.[Na+]", "IC50": 40.6},
      {"compound": "COC(=O)c1cc2sc(SC3=C(C(=O)[O-])N4C(=O)[C@H]([C@@H](C)O)[C@H]4[C@H]3C)nc2o1.[Na+]", "IC50": 3.36},
      {"compound": "C[C@@H](O)[C@H]1C(=O)N2C(C(=O)[O-])=C(Sc3ccc4ccccc4n3)[C@H](C)[C@H]12.[Na+]", "IC50": 71.4},
      {"compound": "C[C@@H](O)[C@H]1C(=O)N2C(C(=O)[O-])=C(Sc3nc4ccccc4o3)[C@H](C)[C@H]12.[Na+]", "IC50": 112},
      {"compound": "C[C@@H](O)[C@H]1C(=O)N2C(C(=O)[O-])=C(Sc3nc4cc(C(F)(F)F)ccc4s3)[C@H](C)[C@H]12.[Na+]", "IC50": 1.93},
      {"compound": "C[C@@H](O)[C@H]1C(=O)N2C(C(=O)[O-])=C(Sc3nc4ccc(Cl)cc4s3)[C@H](C)[C@H]12.[Na+]", "IC50": 2.08}
    ]},
    {"tested_on": "Staphylococcus aureus", "assay": "Inhibitory activity against methicillin-sensitive staphylococcus aureus(MSSA)", "type": "functional", "conditions": "not given", "units": {"MIC": "µg/mL"}, "values": [
      {"compound": "C[C@@H](O)[C@H]1C(=O)N2C(C(=O)[O-])=C(Sc3nc4ccc(N)cc4s3)[C@H](C)[C@H]12.[Na+]", "MIC": 0.09},
      {"compound": "COC(=O)c1cc2sc(SC3=C(C(=O)[O-])N4C(=O)[C@H]([C@@H](C)O)[C@H]4[C@H]3C)nc2o1.[Na+]", "MIC": 0.02},
      {"compound": "C[C@@H](O)[C@H]1C(=O)N2C(C(=O)[O-])=C(Sc3ccc4ccccc4n3)[C@H](C)[C@H]12.[Na+]", "MIC": 0.05},
      {"compound": "C[C@@H](O)[C@H]1C(=O)N2C(C(=O)[O-])=C(Sc3nc4ccccc4o3)[C@H](C)[C@H]12.[Na+]", "MIC": 0.23},
      {"compound": "C[C@@H](O)[C@H]1C(=O)N2C(C(=O)[O-])=C(Sc3nc4cc(C(F)(F)F)ccc4s3)[C@H](C)[C@H]12.[Na+]", "MIC": 0.08},
      {"compound": "C[C@@H](O)[C@H]1C(=O)N2C(C(=O)[O-])=C(Sc3nc4ccc(Cl)cc4s3)[C@H](C)[C@H]12.[Na+]", "MIC": 0.1}
    ]},
    {"tested_on": "Staphylococcus aureus", "assay": "Inhibitory activity against methicillin-resistant staphylococcus aureus(MRSA)", "type": "functional", "conditions": "not given", "units": {"MIC": "µg/mL"}, "values": [
      {"compound": "C[C@@H](O)[C@H]1C(=O)N2C(C(=O)[O-])=C(Sc3nc4ccc(N)cc4s3)[C@H](C)[C@H]12.[Na+]", "MIC": 9},
      {"compound": "COC(=O)c1cc2sc(SC3=C(C(=O)[O-])N4C(=O)[C@H]([C@@H](C)O)[C@H]4[C@H]3C)nc2o1.[Na+]", "MIC": 4},
      {"compound": "C[C@@H](O)[C@H]1C(=O)N2C(C(=O)[O-])=C(Sc3ccc4ccccc4n3)[C@H](C)[C@H]12.[Na+]", "MIC": 6.3},
      {"compound": "C[C@@H](O)[C@H]1C(=O)N2C(C(=O)[O-])=C(Sc3nc4ccccc4o3)[C@H](C)[C@H]12.[Na+]", "MIC": 12.1},
      {"compound": "C[C@@H](O)[C@H]1C(=O)N2C(C(=O)[O-])=C(Sc3nc4cc(C(F)(F)F)ccc4s3)[C@H](C)[C@H]12.[Na+]", "MIC": 1.2},
      {"compound": "C[C@@H](O)[C@H]1C(=O)N2C(C(=O)[O-])=C(Sc3nc4ccc(Cl)cc4s3)[C@H](C)[C@H]12.[Na+]", "MIC": 2.3}
    ]}
  ]
}
